Laboratory results reported in PubChem BioAssay (NCI).
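Interpolation was linear, between the two tested concentrations surrounding the appropriate level; five concentrations were tested over 48 hours in 96-well plates. GI50 = concentration required for 50% inhibition of growth. TGI is the concentration that stops growth completely.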

Assays:
Test in all cases: NCI tumour cell line growth inhibition, 48 h
A549 NSCLC = tested on: A549 NSCLC
HOP-62 NSCLC = tested on: HOP-62 NSCLC
OVCAR-5 ovarian = tested on: OVCAR-5 ovarian
T-47D breast = tested on: T-47D breast
SK-MEL-2 melanoma = tested on: SK-MEL-2 melanoma
HS 578T breast = tested on: HS 578T breast
MDA-MB-435 = tested on: MDA-MB-435
NCI-H522 lung = tested on: NCI-H522 lung
CAKI-1 renal = tested on: CAKI-1 renal
MCF7 breast = tested on: MCF7 breast
DU-145 prostate = tested on: DU-145 prostate
RXF 393 renal = tested on: RXF 393 renal
SW-620 colon = tested on: SW-620 colon
HT29 colon = tested on: HT29 colon
SNB-19 CNS = tested on: SNB-19 CNS
786-0 renal = tested on: 786-0 renal
NCI/ADR-RES ovarian = tested on: NCI/ADR-RES ovarian
RPMI-8226 leukemia = tested on: RPMI-8226 leukemia
HCT-15 colon = tested on: HCT-15 colon
UO-31 renal = tested on: UO-31 renal
OVCAR-3 ovarian = tested on: OVCAR-3 ovarian
TK-10 renal = tested on: TK-10 renal
COLO 205 colon = tested on: COLO 205 colon
A498 renal = tested on: A498 renal
BT-549 breast = tested on: BT-549 breast
SK-MEL-5 melanoma = tested on: SK-MEL-5 melanoma
NCI-H226 lung = tested on: NCI-H226 lung
PC-3 prostate = tested on: PC-3 prostate
M14 melanoma = tested on: M14 melanoma
UACC-62 melanoma = tested on: UACC-62 melanoma
K-562 leukemia = tested on: K-562 leukemia
SF-268 CNS = tested on: SF-268 CNS
ACHN renal = tested on: ACHN renal
KM12 colon = tested on: KM12 colon
CCRF-CEM leukemia = tested on: CCRF-CEM leukemia
SK-OV-3 ovarian = tested on: SK-OV-3 ovarian
U251 CNS = tested on: U251 CNS
NCI-H460 lung = tested on: NCI-H460 lung
SR leukemia = tested on: SR leukemia
HL-60(TB) leukemia = tested on: HL-60(TB) leukemia
SN12C renal = tested on: SN12C renal
HCC-2998 colon = tested on: HCC-2998 colon
SNB-75 CNS = tested on: SNB-75 CNS
OVCAR-4 ovarian = tested on: OVCAR-4 ovarian
MOLT-4 leukemia = tested on: MOLT-4 leukemia
EKVX NSCLC = tested on: EKVX NSCLC
MALME-3M melanoma = tested on: MALME-3M melanoma
IGROV1 ovarian = tested on: IGROV1 ovarian
HCT-116 colon = tested on: HCT-116 colon
SK-MEL-28 melanoma = tested on: SK-MEL-28 melanoma
OVCAR-8 ovarian = tested on: OVCAR-8 ovarian
SF-295 CNS = tested on: SF-295 CNS
LOX IMVI melanoma = tested on: LOX IMVI melanoma
SF-539 CNS = tested on: SF-539 CNS
UACC-257 melanoma = tested on: UACC-257 melanoma
MDA-MB-231 breast = tested on: MDA-MB-231 breast
HOP-92 NSCLC = tested on: HOP-92 NSCLC

COC(=O)N1c2ccc3c(nc(Cc4ccccc4)n3[C@H]3CCC[C@H](C(=O)O)C3)c2CC[C@@H]1C
GI50 (A549 NSCLC): 27.6 µM | TGI (A549 NSCLC): > 100 µM | GI50 (HOP-62 NSCLC): 11.3 µM | TGI (HOP-62 NSCLC): > 100 µM | GI50 (OVCAR-5 ovarian): 30.9 µM | TGI (OVCAR-5 ovarian): > 100 µM | GI50 (T-47D breast): 3.17 µM | TGI (T-47D breast): > 100 µM | GI50 (SK-MEL-2 melanoma): 34.3 µM | TGI (SK-MEL-2 melanoma): > 100 µM | GI50 (HS 578T breast): 3.25 µM | TGI (HS 578T breast): > 100 µM | GI50 (MDA-MB-435): 8.59 µM | TGI (MDA-MB-435): > 100 µM | GI50 (NCI-H522 lung): 11.3 µM | TGI (NCI-H522 lung): > 100 µM | GI50 (CAKI-1 renal): 1.81 µM | TGI (CAKI-1 renal): > 100 µM | GI50 (MCF7 breast): 0.115 µM | TGI (MCF7 breast): > 100 µM | GI50 (DU-145 prostate): 93.6 µM | TGI (DU-145 prostate): > 100 µM | GI50 (RXF 393 renal): 12.2 µM | TGI (RXF 393 renal): 91.1 µM | GI50 (SW-620 colon): 46.4 µM | TGI (SW-620 colon): > 100 µM | GI50 (HT29 colon): 5.44 µM | TGI (HT29 colon): > 100 µM | GI50 (SNB-19 CNS): 12.6 µM | TGI (SNB-19 CNS): > 100 µM | GI50 (786-0 renal): 5.67 µM | TGI (786-0 renal): > 100 µM | GI50 (NCI/ADR-RES ovarian): 65.2 µM | TGI (NCI/ADR-RES ovarian): > 100 µM | GI50 (RPMI-8226 leukemia): 3.84 µM | TGI (RPMI-8226 leukemia): 80.9 µM | GI50 (HCT-15 colon): 16.2 µM | TGI (HCT-15 colon): > 100 µM | GI50 (UO-31 renal): 2.87 µM | TGI (UO-31 renal): > 100 µM | GI50 (OVCAR-3 ovarian): 13.3 µM | TGI (OVCAR-3 ovarian): > 100 µM | GI50 (TK-10 renal): 5.7 µM | TGI (TK-10 renal): > 100 µM | GI50 (COLO 205 colon): 4.95 µM | TGI (COLO 205 colon): > 100 µM | GI50 (A498 renal): 12.4 µM | TGI (A498 renal): 52.7 µM | GI50 (BT-549 breast): 48.5 µM | TGI (BT-549 breast): > 100 µM | GI50 (SK-MEL-5 melanoma): 10.2 µM | TGI (SK-MEL-5 melanoma): > 100 µM | GI50 (NCI-H226 lung): 14.1 µM | TGI (NCI-H226 lung): > 100 µM | GI50 (PC-3 prostate): 5.68 µM | TGI (PC-3 prostate): > 100 µM | GI50 (M14 melanoma): 5.86 µM | TGI (M14 melanoma): > 100 µM | GI50 (UACC-62 melanoma): 2.08 µM | TGI (UACC-62 melanoma): > 100 µM | GI50 (K-562 leukemia): 5.03 µM | TGI (K-562 leukemia): > 100 µM | GI50 (SF-268 CNS): 27.7 µM | TGI (SF-268 CNS): > 100 µM | GI50 (ACHN renal): 17.2 µM | TGI (ACHN renal): > 100 µM | GI50 (KM12 colon): 16.4 µM | TGI (KM12 colon): > 100 µM | GI50 (CCRF-CEM leukemia): 6.55 µM | TGI (CCRF-CEM leukemia): > 100 µM | GI50 (SK-OV-3 ovarian): 16.9 µM | TGI (SK-OV-3 ovarian): > 100 µM | GI50 (U251 CNS): 17.1 µM | TGI (U251 CNS): > 100 µM | GI50 (NCI-H460 lung): 23.4 µM | TGI (NCI-H460 lung): > 100 µM | GI50 (SR leukemia): 13.8 µM | TGI (SR leukemia): > 100 µM | GI50 (HL-60(TB) leukemia): 3.18 µM | TGI (HL-60(TB) leukemia): > 100 µM | GI50 (SN12C renal): 17.3 µM | TGI (SN12C renal): > 100 µM | GI50 (HCC-2998 colon): 8.36 µM | TGI (HCC-2998 colon): 27.1 µM | GI50 (SNB-75 CNS): 0.431 µM | TGI (SNB-75 CNS): > 100 µM | GI50 (OVCAR-4 ovarian): 6.84 µM | TGI (OVCAR-4 ovarian): > 100 µM | GI50 (MOLT-4 leukemia): 14.3 µM | TGI (MOLT-4 leukemia): > 100 µM | GI50 (EKVX NSCLC): 17.9 µM | TGI (EKVX NSCLC): > 100 µM | GI50 (MALME-3M melanoma): 6.13 µM | TGI (MALME-3M melanoma): > 100 µM | GI50 (IGROV1 ovarian): 20.8 µM | TGI (IGROV1 ovarian): > 100 µM | GI50 (HCT-116 colon): 17.6 µM | TGI (HCT-116 colon): > 100 µM | GI50 (SK-MEL-28 melanoma): 13.2 µM | TGI (SK-MEL-28 melanoma): > 100 µM | GI50 (OVCAR-8 ovarian): 28.2 µM | TGI (OVCAR-8 ovarian): > 100 µM | GI50 (SF-295 CNS): 11.7 µM | TGI (SF-295 CNS): > 100 µM | GI50 (LOX IMVI melanoma): 1.03 µM | TGI (LOX IMVI melanoma): 30.2 µM | GI50 (SF-539 CNS): 15.7 µM | TGI (SF-539 CNS): > 100 µM | GI50 (UACC-257 melanoma): 14.6 µM | TGI (UACC-257 melanoma): > 100 µM | GI50 (MDA-MB-231 breast): 15.8 µM | TGI (MDA-MB-231 breast): > 100 µM | GI50 (HOP-92 NSCLC): 1.62 µM | TGI (HOP-92 NSCLC): 11.8 µM
